Results reported in patent US7741521B2, “Inhibition of bid-induced cell-death using small organic molecules” (The Burnham Institute, priority 2004, dated 2010).
“Also recorded” adds a separate entry of the source.

Tests used:
[1] = target: BCL-XL (Homo sapiens, UniProt Q07817); assay: NMR-binding assay against BCL-XL
[2] = target: T1, tBID (Mus musculus, UniProt P70444); assay: tBID-induced Smac release from isolated mitochondria; format: biochemical; conditions: for tBID-induced Smac release from mitochondria isolated from HeLa cells: 50 ng tBid
T1 construct: tBID was produced by cleavage of purified BID with caspase-8, as known in the art; made in house; host or cells: E. coli BL21 (BID), then cleaved in vitro with caspase-8
T1 sequence (P70444 60-195 limits assumed): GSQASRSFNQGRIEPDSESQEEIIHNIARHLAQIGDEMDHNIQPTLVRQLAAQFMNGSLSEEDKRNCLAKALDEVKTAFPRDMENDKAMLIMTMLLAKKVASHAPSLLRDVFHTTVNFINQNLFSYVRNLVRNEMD
T1 sequence (P70444 1-59 partner limits assumed): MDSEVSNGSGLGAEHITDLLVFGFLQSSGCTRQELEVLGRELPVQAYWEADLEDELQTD
Description: 100 ng of tBID (cleaved by caspase 8) was pre-incubated with various concentrations of compounds for 15 minutes at 30° C. in HM buffer (10 mM Hepes, pH 7.4, 250 mM Mannitol, 10 mM KCl, 1.5 mM MgCl, 1 mM DTT, 1 mM EGTA), then 50 μg of isolated mitochondria from HCT116 cells were added to a final volume of 50 μl in HM buffer. After 1 hour incubation at 30° C., the samples were centrifuged at 10,000×g for 5 minutes at 4° C. and the supernatant was analyzed by SDS-PAGE/immunoblotting using anti-SMAC antibody.
Compounds II-IX were tested in vitro for their ability to inhibit BID-mediated release of Smac using mitochondria isolated from HeLa cells (FIG. 6A). The first lane represents mitochondria incubated without tBID. All others received 100 ng tBID without or with compounds. Each compound was tested at a concentration of 50 μM. […] To preliminarily investigate the mechanism by which compound II reduces Smac-release from isolated mitochondria, the tBID protein was treated with different concentrations of BI-6C9, after which it was incubated with mitochondria, followed by analysis of the bound and unbound fractions by immunoblotting using BID antibody. The concentration of mitochondria-bound tBID diminished in response to increasing concentrations of compound II.
About 50 ng of tBID cleaved by […] was pre-incubated for about 15 minutes at about 30° C. with various concentrations of compounds I, II, and X. Then, about 50 μg of isolated mitochondria from Hela cells were added to the reaction system. After about 1 hour of incubation at about 30° C., the samples were centrifuged at 10,000×g for about 5 minutes at about 4° C., and the supernatant was analyzed by SDS-PAGE/immunoblotting using Smac antibody. The results of the analysis are presented on FIG. 8. As shown by FIG. 9, compound I is a strong binder for BID.
Some results of comparative studies of compounds I and II are shown on FIG. 10. […] The first lane represents mitochondria incubated without tBID. All others received 50 ng tBid without or with bi-dentate compound.

[3] = target: T1, tBID; assay: NMR chemical shift mapping with tBID (BID cleaved with caspase-8); format: binding; conditions: 15N-BID after cleavage with caspase-8
Description: Recombinant full length mouse BID was produced from a pET-19b (Novagen) plasmid construct containing the entire nucleotide sequence for BID fused to an N-terminal poly-His tag. Unlabeled BID was expressed in E. coli BL21 in LB media at 37° C., with an induction period of 3-4 hours with 1 mM IPTG. ^15N-labeled BID was similarly produced, with growth occurring in M9 media supplemented with 0.5 g/L ^15NH4Cl. ε-^13C-Met labeled BID was produced in M9 media supplemented with 50 mg/L of ε-^13C-Met at time of induction with IPTG. Following cell lysis, soluble BID was purified over a Hi-Trap chelating column (Amersham, Pharmacia), followed by ion-exchange purification with a MonoQ (Amersham, Pharmacia) column. Final BID samples were dialyzed into a buffer appropriate for the subsequent experiments. tBID was produced by cleavage of purified BID with caspase-8, as known in the art.
For all NMR experiments, BID was exchanged into 50 mM phosphate buffer at pH 7.5 and measurements were performed at 30° C. 2D [^15N,^1H]-TROSY spectra for BID were measured with 0.5 mM samples of ^15N-labeled BID. 2D [^13C,^1H]-HSQC spectra were measured with 0.2 mM samples of ε-^13C-Met labeled BID. 2D [^1H,^1H]-NOESY spectra were acquired with small molecules at a concentration of 0.9 mM in the presence of 10 μM BID. […]

Chain of BCL-XL (Q07817 whole entry, species assumed): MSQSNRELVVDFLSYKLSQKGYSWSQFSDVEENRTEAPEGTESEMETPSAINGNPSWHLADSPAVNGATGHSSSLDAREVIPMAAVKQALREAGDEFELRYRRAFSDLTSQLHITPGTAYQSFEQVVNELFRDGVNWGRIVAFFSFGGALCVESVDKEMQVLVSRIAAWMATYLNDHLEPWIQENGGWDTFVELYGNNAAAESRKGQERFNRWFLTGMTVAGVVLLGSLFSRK

Compound	binding to BCL-XL [1]	tBID-induced Smac release from mitochondria isolated from HeLa cells [2]	binding to tBID compared with full-length BID [3]	inhibition at 50 µM ([2]; 50 μM compound, isolated mitochondria)	reduction of tBID-induced Smac release ([2]; 50 μM, 100 ng tBID, mitochondria isolated from HeLa cells)	decrease of Smac release, dose experiment ([2]; at concentrations as low as 20 μM)
Nc1ccc(Sc2ccc(NC(=O)CNC(=O)c3ccc(O)cc3O)cc2)cc1 [Compound I, N-((4-(4-aminophenylthio)phenylcarbamoyl)methyl)-2,4-dihydroxybenzamide]	did not show appreciable binding	block	higher affinity			
COc1ccc(S(=O)(=O)NCCCC(=O)Nc2ccc(Sc3ccc(N)cc3)cc2)cc1 [Compound II, N-[4-(4-amino-phenylsulfanyl)-phenyl]-4-(4-methoxy-benzenesulfonylamino)-butyramide]	does not bind appreciably; also recorded: did not show appreciable binding	block	binding even better	100%	significantly reduce	dramatically decreased
